Common to all, as to assay type: cell-based
Assay [1] concerns BT474 cells (HER2 positive breast cancer cells). As to the kind of experiment: Cell viability assay (CCK8), BT474 cells. Conditions: Homo sapiens, BT-474, Table 10, BT474, 72 hours, read-out: IC50 (half inhibitory concentration). From the text:
The cell lines with abnormal EGFR expression used are as follows: • HCC827 cells (EGFR Exon19 del, non-small cell lung cancer cells); • PC9 cells (EGFR Exon 19 del, non-small cell lung cancer cells); • PC9BracA1 (EGFR Exon 19 del+T790M, non-small cell lung cancer cells) • H1975 (EGFR Exon T790M+L858R mutation, non-small cell lung cancer cell line) • BT474 cells (HER2 positive breast cancer cells)
All of the half inhibitory concentrations (IC50) of these compounds of the present invention were determined with WST reagent from Fuyuan Biotec Company. The specific experiment procedures are as follows: Cancer cells were planted in 96-well-plate at the density of 3 000 cells per well with 100 μL RPMI1640 completed culture medium. In the next day, compounds with indicated concentrations were added to the cells, DMSO was used as the negative control and the EGFR TKIs were used to treat cells as the positive groups. After 72 hours drug treatment, cell viability was measured by using the WST reagent following the instructions. The growth inhibition curve of the compounds on cells were plotted by Prism GraphPad, and the compounds IC50 calculated from it.
The cell viability assays were taken to determine the anti-tumor activity of these indicated compounds in BT474 cells, which can overexpress HER2 protein. The cells were treated with the gradient concentration of these compounds (the maximum concentration: 10 μM; 3-fold dilution ratio, 10 concentration gradients) for 72 hours and then incubated with the CCK8 reagent to determine the cell viability.

In assay [2] the test system is HCC827 cells (EGFR Exon19 del, non-small cell lung cancer cells). Description: Cell viability assay (WST/CCK8), HCC827 cells. The conditions noted are these: Homo sapiens, HCC827, 72 h, read-out: IC50 (half inhibitory concentration). The gist of the method:
(§1)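 Plated 3 000 cells/well in complete RPMI1640 the day before dosing; controls were DMSO (negative) and EGFR TKIs (positive).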

For assay [3], the system named is PC9 cells (EGFR Exon 19 del, non-small cell lung cancer cells). Description: Cell viability assay (WST/CCK8), PC9 cells. Conditions: Homo sapiens, read-out: IC50 (half inhibitory concentration). The method, boiled down:
as §1

Where [4] appears, read: Table 6, canertinib-based compounds, HCC827 (Exon19 Del), 72 hours, WST.
[5] abbreviates: PC-9, Table 6, canertinib-based compounds, PC9 (Exon19 Del), 72 hours, WST.
Where [6] appears, read: HCC827 (Exon19 Del), 72 hours, WST (CCK8).
The mark [7] stands for this setting: PC-9, PC9 (Exon19 Del), 72 hours, WST (CCK8).

Read-outs that look alike come from different tables or passages of the source. Where only a bound is given, the exact number is not on record here.

In the case of `C=CC(=O)Nc1cc2c(Nc3ccc(F)c(Cl)c3)ncnc2cc1OCCCN1CCN(C(=O)CCC(=O)NCCOCCNc2cccc3c2C(=O)N(C2CCC(=O)NC2=O)C3=O)CC1` (centres unmarked) [SIAIS249099, 4-(4-(3-((6-acrylamido-4-((3-chloro-4-fluorophenyl)amino)quinazolin-7-yl)oxy)propyl)piperazin-1-yl)-N-(2-(2-((2-(2,6-dioxopiperidin-3-yl)-1,3-dioxoisoindolin-4-yl)amino)ethoxy)ethyl)-4-oxobutanamide], the IC50 in assay [1] turned out to be 0.0356 µM; in assay [2] (setting [4]), 0.0118 µM; in assay [3] (setting [5]), 0.0297 µM.
Take `C=CC(=O)Nc1cc2c(Nc3ccc(F)c(Cl)c3)ncnc2cc1OCCCN1CCN(C(=O)CCCC(=O)N[C@H](C(=O)N2C[C@H](O)C[C@H]2C(=O)NCc2ccc(-c3scnc3C)cc2)C(C)(C)C)CC1` [SIAIS262128, (2S,4R)-1-((S)-2-(5-(4-(3-((6-acrylamido-4-((3-chloro-4-fluorophenyl)amino)quinazolin-7-yl)oxy)propyl)piperazin-1-yl)-5-oxopentanamido)-3,3-dimethylbutanoyl)-4-hydroxy-N-(4-(4-methylthiazol-5-yl)benzyl)pyrrolidine-2-carboxamide]: the IC50 in assay [1] came out at 0.0421 µM; in assay [2] (setting [4]), 0.0143 µM; in assay [3] (setting [5]), 0.0159 µM.
In the case of `C=CC(=O)Nc1cc2c(Nc3ccc(F)c(Cl)c3)ncnc2cc1OCCCN1CCOCC1` [canertinib, reference compound], the IC50 worked out at 0.0175 µM in assay [1]; 0.0007 µM in assay [2]; 0.0009 µM in assay [3] (PC-9, 72 h).
For the molecule `COc1cc2ncnc(Nc3ccc(F)c(Cl)c3)c2cc1NC(=O)/C=C/CN1CCC(N)CC1` [SIAIS249077, (E)-4-(4-aminopiperidin-1-yl)-N-(4-((3-chloro-4-fluorophenyl)amino)-7-methoxyquinazolin-6-yl)but-2-enamide], the IC50 in assay [1] was found to be 0.0123 µM; in assay [2] (setting [6]), 0.02 µM; in assay [3] (setting [7]), 0.0008 µM.
For `COc1cc2ncnc(Nc3ccc(F)c(Cl)c3)c2cc1NC(=O)/C=C/CN1CCC(NC(=O)CCNc2cccc3c2C(=O)N(C2CCC(=O)NC2=O)C3=O)CC1` (centres unmarked) [SIAIS249082, (E)-N-(4-((3-chloro-4-fluorophenyl)amino)-7-methoxyquinazolin-6-yl)-4-(4-(3-((2-(2,6-dioxopiperidin-3-yl)-1,3-dioxoisoindolin-4-yl)amino)propanamido)piperidin-1-yl)but-2-enamide], in that order: 0.0525 µM, 0.006 µM and 0.0061 µM.
Regarding `COc1cc2ncnc(Nc3ccc(F)c(Cl)c3)c2cc1NC(=O)/C=C/CN1CCC(N2CCN(C(=O)CCCCCCSc3cccc4c3C(=O)N(C3CCC(=O)NC3=O)C4=O)CC2)CC1` (centres unmarked) [SIAIS262033, (E)-N-(4-((3-chloro-4-fluorophenyl)amino)-7-methoxyquinazolin-6-yl)-4-(4-(4-(7-((2-(2,6-dioxopiperidin-3-yl)-1,3-dioxoisoindolin-4-yl)thio)heptanoyl)piperazin-1-yl)piperidin-1-yl)but-2-enamide], the IC50 is 0.0007 µM in assay [1], approximately 0.001 µM in assay [2] (setting [6]) and 0.0038 µM in assay [3] (setting [7]).
As to `COc1cc2ncnc(Nc3ccc(F)c(Cl)c3)c2cc1NC(=O)/C=C/CN1CCC(NC(=O)CCCCSc2cccc3c2CN(C2CCC(=O)NC2=O)C3=O)CC1` (centres unmarked) [SIAIS262113, (E)-N-(1-(4-((4-((3-chloro-4-fluorophenyl)amino)-7-methoxyquinazolin-6-yl)amino)-4-oxobut-2-en-1-yl)piperidin-4-yl)-5-((2-(2,6-dioxopiperidin-3-yl)-1-oxoisoindolin-4-yl)thio)pentanamide], the IC50 in assay [1] stood at 0.0677 µM; in assay [2] (setting [6]), 0.049 µM; in assay [3] (setting [7]), 0.0039 µM.
The like results for `COc1cc2ncnc(Nc3ccc(F)c(Cl)c3)c2cc1NC(=O)/C=C/CN1CCC(NC(=O)CCCCCSc2cccc3c2CN(C2CCC(=O)NC2=O)C3=O)CC1` (centres unmarked) [SIAIS262114, (E)-N-(1-(4-((4-((3-chloro-4-fluorophenyl)amino)-7-methoxyquinazolin-6-yl)amino)-4-oxobut-2-en-1-yl)piperidin-4-yl)-6-((2-(2,6-dioxopiperidin-3-yl)-1-oxoisoindolin-4-yl)thio)hexanamide] were, in that order, 0.09 µM, 0.004 µM and 0.0119 µM.
As to `COc1cc2ncnc(Nc3ccc(F)c(Cl)c3)c2cc1NC(=O)/C=C/CN1CCC(NCCCC#Cc2cccc3c2CN(C2CCC(=O)NC2=O)C3=O)CC1` (centres unmarked) [SIAIS262116, (E)-N-(4-((3-chloro-4-fluorophenyl)amino)-7-methoxyquinazolin-6-yl)-4-(4-((5-(2-(2,6-dioxopiperidin-3-yl)-1-oxoisoindolin-4-yl)pent-4-yn-1-yl)amino)piperidin-1-yl)but-2-enamide], the IC50 in assay [1] worked out at 0.083 µM; in assay [2] (setting [6]), 0.011 µM; in assay [3] (setting [7]), 0.0033 µM.
Regarding `C=CC(=O)Nc1cc2c(Nc3ccc(F)c(Cl)c3)ncnc2cc1OCCCN1CCN(C(=O)CSc2cccc3c2CN(C2CCC(=O)NC2=O)C3=O)CC1` (centres unmarked) [SIAIS262121, N-(4-((3-chloro-4-fluorophenyl)amino)-7-(3-(4-(2-((2-(2,6-dioxopiperidin-3-yl)-1-oxoisoindolin-4-yl)thio)acetyl)piperazin-1-yl)propoxy)quinazolin-6-yl)acrylamide], the IC50 worked out at 0.0053 µM in assay [1], 0.0093 µM in assay [2] (setting [4]) and 0.0434 µM in assay [3] (setting [5]).
On to `C=CC(=O)Nc1cc2c(Nc3ccc(F)c(Cl)c3)ncnc2cc1OCCCN1CCN(C(=O)CCc2ccc(CCC(=O)N[C@H](C(=O)N3C[C@H](O)C[C@H]3C(=O)NCc3ccc(-c4scnc4C)cc3)C(C)(C)C)cc2)CC1` [SIAIS249102, (2S,4R)-1-((S)-2-(3-(4-(3-(4-(3-((6-acrylamido-4-((3-chloro-4-fluorophenyl)amino)quinazolin-7-yl)oxy)propyl)piperazin-1-yl)-3-oxopropyl)phenyl)propanamido)-3,3-dimethylbutanoyl)-4-hydroxy-N-(4-(4-methylthiazol-5-yl)benzyl)pyrrolidine-2-carboxamide], for which the IC50 in assay [1] was determined as 0.0038 µM; in assay [2] (setting [4]), 0.0252 µM; in assay [3] (setting [5]), 0.016 µM.
`COc1cc2ncnc(Nc3ccc(F)c(Cl)c3)c2cc1NC(=O)/C=C/CN1CCC(N2CCN(CCCCCSc3cccc4c3CN(C3CCC(=O)NC3=O)C4=O)CC2)CC1` (centres unmarked) [SIAIS262064, (E)-N-(4-((3-chloro-4-fluorophenyl)amino)-7-methoxyquinazolin-6-yl)-4-(4-(4-(5-((2-(2,6-dioxopiperidin-3-yl)-1-oxoisoindolin-4-yl)thio)pentyl)piperazin-1-yl)piperidin-1-yl)but-2-enamide]: the IC50 in assay [1] is 0.00185 µM.
Turning to `C=CC(=O)N1CCC(Oc2cc3c(Nc4ccc(Cl)c(Cl)c4F)ncnc3cc2OC)CC1` [poziotinib, reference compound], the IC50 is less than 0.0001 µM in assay [1]; 0.0005 µM in assay [2] (setting [6]); 0.0005 µM in assay [2] (Table 3, poziotinib-based compounds, HCC827 (Exon19 Del), 72 hours, WST (CCK8)); less than 0.0001 µM in assay [3] (PC-9, Table 3, poziotinib-based compounds, PC9 (Exon 19 Del), 72 hours, WST (CCK8)).
Take `COc1cc2ncnc(Nc3ccc(F)c(Cl)c3)c2cc1NC(=O)/C=C/CN1CCC(NCCCCC#Cc2cccc3c2CN(C2CCC(=O)NC2=O)C3=O)CC1` (centres unmarked) [SIAIS262117, (E)-N-(4-((3-chloro-4-fluorophenyl)amino)-7-methoxyquinazolin-6-yl)-4-(4-((6-(2-(2,6-dioxopiperidin-3-yl)-1-oxoisoindolin-4-yl)hex-5-yn-1-yl)amino)piperidin-1-yl)but-2-enamide]: the IC50 in assay [1] amounted to 0.484 µM; in assay [2] (setting [6]), 0.016 µM; in assay [3] (setting [7]), 0.0312 µM.
As for `COc1cc2ncnc(Nc3ccc(F)c(Cl)c3)c2cc1NC(=O)/C=C/CN1CCC(N2CCN(Cc3ccc(CNc4cccc5c4CN(C4CCC(=O)NC4=O)C5=O)cc3)CC2)CC1` (centres unmarked) [SIAIS337024, (E)-N-(4-((3-chloro-4-fluorophenyl)amino)-7-methoxyquinazolin-6-yl)-4-(4-(4-(4-(((2-(2,6-dioxopiperidin-3-yl)-1-oxoisoindolin-4-yl)amino)methyl)benzyl)piperazin-1-yl)piperidin-1-yl)but-2-enamide], the results for the IC50 in assay [1], in assay [2] (setting [6]) and in assay [3] (setting [7]) were 0.0515 µM, 0.0011 µM and 0.013 µM, respectively.

Source of the values: patent US12564638B2 (SHANGHAITECH UNIVERSITY, priority 2019, dated 2026).
